Legend:
Type in all cases: cell-based, human
melanoma cells = assay: Apoptosis by AnnexinV and DAPI co-staining
Experimental: Cells were sampled after 24 h treatment with DMSO, paniceins and/or dxr, and apoptosis determined via AnnexinV and DAPI co-staining. Cells in early apoptosis are AnnexinV positive and DAPI negative, and cells in late apoptosis are AnnexinV and DAPI double positive. Histograms represent the mean percentage (+/−SEM) of cells in late apoptosis from three independent experiments and were analyzed using the Student t-test in which significance is attained at P<0.05 (*) (**: P<0.005).

[1] = test system: Patched protein in MEWO and A375 cells; assay: Western blotting of Patched after panicein treatment; conditions: 24 hours, 10 μM
Experimental: Western-blotting on total extracts from MEWO and A375 cells after 24 h treatment with 10 μM of panicein A hydroquinone (P5) or with DMSO.
Total extracts from melanoma cells were prepared. Samples were separated on 8% SDS-PAGE and transferred to nitrocellulose membranes (Amersham) using standard techniques. After 1 hour at room temperature in blocking buffer (20 mmol/L Tris-HCl pH 7.5, 450 mmol/L NaCl, 0.1% Tween-20, and 4% non-fat milk), nitrocellulose membranes were incubated overnight at 4° C. with rabbit anti-Patched antiserum (Ab130.6 1:1000 generous gift from M. Ruat or Ab39266 from Abcam 1/1000) and monoclonal mouse anti-βtubulin antibody (Sigma; 1/1000). After 3 washes, membranes were incubated 45 min with anti-mouse (1:5000) or anti-rabbit (1:3000) immunoglobulin coupled to horseradish peroxidase (Dako). Detection was carried out with an ECL kit (Millipore) on a Las3000 (Fuji).

A375 cells = assay: Doxorubicin efflux from melanoma cells (intracellular dxr fluorescence); conditions: A375, loaded with 10 μM dxr, 10 μM compound, 30 min efflux
Experimental: (§1) A. Compound P5 inhibits doxorubicin efflux from melanoma cells MeWo and A375. Cells were grown on cover-slips, incubated for 2 hour at 37° C. with 10 μM doxorubicin and quickly rinsed with phosphate buffer (pH 7.4). One cover-slip of each cell line was immediately fixed for doxorubicin charge control. The other cover-slips were incubated with buffer supplemented with DMSO or 10 μM of compound P5 30 min under gentle shaking and immediately fixed. Dxr intracellular fluorescence was visualized by epifluorescence and analyzed using Image J software on more than 30 cells of 3 different fields for each condition. The results were analyzed using the Student t test in which significance is attained at P<0.05 (**: P<0.005, ***: P<0.0005). […] Dxr intracellular fluorescence quantification was carried out using Image J software on more than 30 yeasts on 3 different fields for each condition. The results were analyzed using the Student t test in which significance is attained at P<0.05 (*).
(§2) On melanoma cells: For doxorubicin incorporation in melanoma cells, the protocol was adapted from Bidet et al. (2012). […] Quantification of doxorubicin intracellular fluorescence was carried out using Image J software on more than 30 cells of 3 different fields for each condition. The results were analyzed using the Student t test in which significance is attained at P<0.05.

MeWo cells = assay: as above; conditions: loaded with 10 μM dxr, 10 μM compound, 30 min efflux
Experimental: as §1, §2

COc1cc(C)c(CC/C(C)=C/Cc2cc(O)ccc2O)c(C)c1C [P5, Panicein A hydroquinone]
early apoptosis (Annexin V and DAPI labeling) (melanoma cells; 24 h treatment with paniceins and/or dxr): increases early apoptosis | number of apoptotic melanoma cells (melanoma cells; 24 h treatment, AnnexinV and DAPI co-staining): strongly increases | effect on Patched expression or degradation [1]: no effect | increase of dxr in cells (dxr fluorescence intensity) after efflux (A375 cells): about 25% | increase of dxr in cells (dxr fluorescence intensity) after efflux (MeWo cells): about 25%

Source: US10376476B2, “Panicein compounds, compositions and uses thereof” (CENTRE NATIONAL DE LA RECHERCHE SCIENTIFIQUE, priority 2014, dated 2019)
